Laboratory results as given in patent publication US12637427B2, “ALDH-2 inhibitor compounds and methods of use” (Amygdala Neurosciences, Inc., priority 2022, dated 2026).

Experiments:
HepaRG spheroids = assay: HepaRG 3D spheroid assay; format: cell-based; settings: for Ratio MEC to ALDH2: HepaRG spheroid MEC divided by ALDH-2 IC50; for HepaRG 3D Spheroid MEC: minimum effective concentration crossing vehicle control threshold of cell health marker, 100 μM = highest concentration tested
Source text: See e.g., Walker et al., “The evolution of strategies to minimise the risk of human drug-induced liver injury (DILI) in drug discovery and development,” (2020) Archives of Toxicology, Vol. 94: 2559-2585, which is hereby incorporated by reference herein in its entirety. […] In applying the HepaRG spheroid assay analysis to determining the hepatoxic liability of ALDH-2 inhibitor compounds, consideration is made of the binding to plasma protein and the limitations to CNS penetration due to the blood-brain barrier.
E. HepaRG® 3D spheroid assay: The HepaRG 3D spheroid assay is described in Walker et al., “The evolution of strategies to minimise the risk of human drug-induced liver injury (DILI) in drug discovery and development,” (2020) Archives of Toxicology, Vol. 94: 2559-2585. Briefly, HepaRG® cells were seeded into ultra-low adhesion 96-well black walled clear bottomed spheroid microplates. […] At the end of the incubation period, the spheroids were loaded with the relevant dye/antibody for each cell health marker (spheroid count, spheroid size, DNA structure, mitochondrial mass, mitochondrial membrane potential, oxidative stress, glutathione content, and cellular ATP). The plates were then scanned using an automated fluorescent cellular imager, ArrayScan® (Thermo Scientific Cellomics).

recombinant human ALDH-2 = target: T1, recombinant human ALDH-2 (Homo sapiens, UniProt P05091); assay: ALDH-2 inhibition assay; format: biochemical; settings: 60 min pre-incubation; 10 μM = highest concentration tested; read-out: Enzymatic Assays IC50 ALDH2
T1 sequence (P05091 18-517): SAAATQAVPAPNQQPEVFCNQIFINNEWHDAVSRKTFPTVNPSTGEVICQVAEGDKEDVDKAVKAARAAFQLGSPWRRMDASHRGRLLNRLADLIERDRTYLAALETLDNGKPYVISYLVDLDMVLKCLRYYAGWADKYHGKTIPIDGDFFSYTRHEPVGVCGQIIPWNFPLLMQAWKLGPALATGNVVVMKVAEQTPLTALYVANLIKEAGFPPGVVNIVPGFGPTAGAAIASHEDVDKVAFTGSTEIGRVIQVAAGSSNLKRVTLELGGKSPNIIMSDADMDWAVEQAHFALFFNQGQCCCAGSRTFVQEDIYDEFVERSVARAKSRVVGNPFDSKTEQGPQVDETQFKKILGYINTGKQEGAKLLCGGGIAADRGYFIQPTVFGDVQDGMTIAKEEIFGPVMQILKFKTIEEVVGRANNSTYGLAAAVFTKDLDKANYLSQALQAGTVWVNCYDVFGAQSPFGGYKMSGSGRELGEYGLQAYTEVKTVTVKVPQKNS
Procedure: A. ALDH-2 inhibition assay: The ALDH-2 reaction mixture used in the assay contained 125 μM formaldehyde, 75 μM NAD+, 20 mM NaCl, 10 mM MgCl2, and 20 nM recombinant human ALDH-2 in 50 mM Hepes buffer, pH 7.5 in a final volume of 10 μL using 384-well Corning 3820 plates. After 60 min of pre-incubation of the test ALDH-2 inhibitor compound with ALDH-2, the reaction was started by adding NAD+ and formaldehyde and the assay reaction mixture was allowed to proceed for 60 minutes. Activity of the ALDH-2 enzyme was determined by monitoring NADH formation using Perkin-Elmer Envision Reader with excitation and emission wavelengths set at 340 and 460 nm, respectively.

MAO-B = target: T2, MAO-B (Homo sapiens, UniProt P27338); assay: MAO-B inhibition assay; format: biochemical; settings: 20 min pre-incubation; 10 μM = highest concentration tested; read-out: Enzymatic Assays IC50 MAO-B
T2 sequence (P27338 1-520): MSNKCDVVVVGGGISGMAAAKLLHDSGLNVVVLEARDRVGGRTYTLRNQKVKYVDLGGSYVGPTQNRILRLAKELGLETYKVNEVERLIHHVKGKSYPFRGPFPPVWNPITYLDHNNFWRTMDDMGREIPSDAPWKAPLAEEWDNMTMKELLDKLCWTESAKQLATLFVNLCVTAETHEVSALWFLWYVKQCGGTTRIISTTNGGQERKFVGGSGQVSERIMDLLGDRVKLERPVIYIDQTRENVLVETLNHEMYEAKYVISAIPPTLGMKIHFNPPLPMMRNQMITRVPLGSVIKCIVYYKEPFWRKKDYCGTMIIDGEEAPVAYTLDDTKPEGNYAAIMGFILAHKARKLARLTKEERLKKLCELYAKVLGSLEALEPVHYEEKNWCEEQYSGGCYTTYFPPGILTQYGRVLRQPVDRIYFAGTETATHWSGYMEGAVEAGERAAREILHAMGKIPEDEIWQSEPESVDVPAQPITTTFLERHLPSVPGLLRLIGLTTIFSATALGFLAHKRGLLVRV
Procedure: D. MAO-A and MAO-B inhibition assays: MAO assays included luminogenic MAO substrate, reaction buffers, Luciferin Detection, and a reconstitution buffer with esterase. The MAO reaction mixture used in the assay included microsome contained MAO-A (2 μg) or MAO-B (10 μg), 160 μM substrate for MAO-A or 16 μM substrate for MAO-B, MAO-A buffer (100 mM Hepes buffer, pH 7.5, 5% glycerol) or MAO-B buffer (100 mM Hepes, pH 7.5, 5% glycerol, 10% dimethyl sulfoxide) in a final volume of 30 μL. After 20 minutes of pre-incubation of the MAO-A or MAO-B enzyme with the test ALDH-2 inhibitor compound, the reaction was initiated by adding enzyme substrate and the […] reaction was allowed to proceed for 60 minutes. Reconstituted Luciferin Detection Reagent (30 μL) was then added is added to simultaneously stop the MAO reaction and convert the methyl ester derivative to luciferin and produce light. The amount of light produced is directly proportional to the activity of MAO. The mixtures were further incubated for 20 minutes and activity of the enzyme was determined using Perkin-Elmer Envision Reader.

recombinant human ALDH-1 = target: T3, recombinant human ALDH-1 (Homo sapiens, UniProt P00352); assay: ALDH-1 inhibition assay; format: biochemical; settings: 60 min pre-incubation; 10 μM = highest concentration tested; read-out: Enzymatic Assays IC50 ALDH-1
T3 sequence (P00352 1-501): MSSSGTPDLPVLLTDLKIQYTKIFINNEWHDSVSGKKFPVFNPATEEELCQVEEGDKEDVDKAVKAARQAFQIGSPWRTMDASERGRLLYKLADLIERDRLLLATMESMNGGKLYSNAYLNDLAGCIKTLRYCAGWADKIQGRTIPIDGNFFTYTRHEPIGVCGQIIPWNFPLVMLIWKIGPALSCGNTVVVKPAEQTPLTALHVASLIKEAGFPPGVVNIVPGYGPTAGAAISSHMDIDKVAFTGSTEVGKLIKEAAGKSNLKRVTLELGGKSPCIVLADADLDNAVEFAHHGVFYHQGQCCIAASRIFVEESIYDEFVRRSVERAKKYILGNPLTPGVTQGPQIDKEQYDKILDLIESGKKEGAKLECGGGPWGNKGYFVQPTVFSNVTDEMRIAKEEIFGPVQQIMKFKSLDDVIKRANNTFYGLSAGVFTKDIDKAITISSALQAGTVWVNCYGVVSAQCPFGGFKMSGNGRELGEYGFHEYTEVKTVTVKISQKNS
Procedure: B. ALDH-1 inhibition assay: The ALDH-1 reaction mixture used in the assay contained 100 μM formaldehyde, 2.5 mM NAD+, 20 mM NaCl, 10 mM MgCl2, 1 mM dithiothreitol (DTT; reducing agent), and 50 nM recombinant human ALDH-1 in 50 mM Hepes buffer, pH 7.5 in a final volume of 10 μL using 384-well Corning 3820 plates. After 60 min of pre-incubation of the test ALDH-2 inhibitor compound with ALDH-1, the reaction was started by adding NAD+ and formaldehyde and the assay reaction mixture was allowed to proceed for 60 minutes. Activity of the ALDH-1 enzyme was determined by monitoring NADH formation using Perkin-Elmer Envision Reader with excitation and emission wavelengths set at 340 and 460 nm, respectively.

Row | Ratio MEC to ALDH2 (HepaRG spheroids) | HepaRG 3D Spheroid MEC (HepaRG spheroids) | IC50 (recombinant human ALDH-2) [nM] | IC50 (MAO-B) [µM] | IC50 (recombinant human ALDH-1) [µM] | SMILES
1 | 133 | 10.4 µM | 78 | > 10 | > 10 | Cc1cccc(Cl)c1C(=O)NCc1ccc(-c2cccc(=O)[nH]2)cc1 [(1a), 2-Chloro-6-methyl-N-(4-(6-oxo-1,6-dihydropyridin-2-yl)benzyl)benzamide]
2 | >730 | No Effect | 137 | > 10 | > 10 | O=C(NCc1ccc(-c2cccc(=O)[nH]2)cc1)c1ccccc1Cl [(1b), 2-Chloro-N-(4-(6-oxo-1,6-dihydropyridin-2-yl)benzyl)benzamide]
3 | 90 | 11.5 µM | 128 | > 10 | > 10 | Cc1nccc(Cl)c1C(=O)NCc1ccc(-c2cccc(=O)[nH]2)cc1 [(1c), 4-Chloro-2-methyl-N-(4-(6-oxo-1,6-dihydropyridin-2-yl)benzyl)nicotinamide]
4 | 1668 | 46.7 µM | 28 | > 10 | > 10 | Cc1nccc(Br)c1C(=O)NCc1ccc(-c2[nH]c(=O)ccc2F)cc1 [(1g), 4-Bromo-N-(4-(3-fluoro-6-oxo-1,6-dihydropyridin-2-yl)benzyl)-2-methylnicotinamide]
5 | 2100 | 21.0 µM | 10 | > 10 | > 10 | Cc1cccc(Cl)c1C(=O)NCc1ccc(-c2cccc(=O)[nH]2)nc1 [(1k), 2-Chloro-6-methyl-N-((6′-oxo-1′,6′-dihydro-[2,2′-bipyridin]-5-yl)methyl)benzamide]
6 | 50 | 5.95 µM | 118 | > 10 | > 10 | O=C(NCc1ccc(-c2cccc(=O)[nH]2)nc1)c1ccccc1Cl [(1l), 2-chloro-N-((6′-oxo-1′,6′-dihydro-[2,2′-bipyridin]-5-yl)methyl)benzamide]
